Measured values reported in patent US12091393B2, “Small molecule vaccine adjuvant for enhancing or prolonging immune response” (The Regents of the University of California, priority 2018, dated 2024).
Entries after “also recorded” stand apart in the source; their conditions may differ. Read-outs that look alike come from different tables or passages of the source.

Legend:
[1] = tested on: NF-kB; test: NF-kB phosphorylation and nuclear localization in THP-1 cells (ICC and WB); assay type: cell-based
[2] = tested on: BMDCs; test: Cytokine production in BMDCs; assay type: cell-based; settings: for cytokine production (mIL-12, mIL-6, mTNFalpha) induced by Dectin1: with Dectin1 (FIGS. 4A-4C)
[3] = tested on: BMDCs; test: Cytotoxicity / cell viability of BMDCs; assay type: cell-based
[4] = tested on: NF-κB; test: Measurement of NF-κB activation using THP1-Blue NF-κB cells (SEAP); assay type: cell-based; settings: for activity at 5 µM: 20 h, two point normalized, compound 1 as 200%; for NF-κB activity (SAR discussion, in words): evaluated in both the presence and absence of LPS
[5] = tested on: BMDCs; test: Co-stimulatory marker expression in BMDCs; assay type: cell-based; settings: for Co-stimulatory markers: CD40 and CD86 induce by LPS or MPLA: BMDCs
[6] = tested on: NF-κB; test: cell-based NF-κB FRET assay; settings: for NF-κB FRET Compound + LPS % Activation: two point normalized, compound 1 as 200%, LPS (10 ng/mL) as 100%
Source text: Site A was assigned the 4-substituent of thiazole ring, site B was the thiazole ring itself, site C was the central amide bond in the structure, site D was the benzene ring bearing 1,4-carboxyl and sulfamoyl group, site E was the sulfonamide functional group and site F was the amide substituent on the sulfamoyl group.

[7] = tested on: BMDCs; test: Gene expression in BMDCs; assay type: cell-based
[8] = tested on: JNK, P38 and Erk1/2; test: MAPK activation in THP-1 cells; assay type: cell-based; settings: #42 alone
[9] = tested on: THP-1 cells; test: Cell viability assay (MTT); assay type: cell-based; settings: compound 5 μM alone, 18 h, normalized to DMSO as 100%
Summary of the method: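 THP-1 cells in RPMI/10% FBS got compound at a final 5 μM (0.05% DMSO) for 18 h. MTT (0.5 mg/mL) was then added for 4 to 6 h, followed by SDS/HCl lysis overnight. Absorbance was read at 570 nm against 650 nm reference.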

[10] = tested on: THP-1 cells; test: RNA seq in THP-1 cells; assay type: cell-based
[11] = tested on: THP-1 cells; test: Co-stimulatory marker expression in THP-1 cells; assay type: cell-based
[12] = Reactogenicity (FIG. 21)
[13] = compound 5 μM + LPS, LPS (10 ng/mL) as 100%, read-out: NF-κB SEAP Compound + LPS % Activation
[14] = compound 5 μM alone, LPS or DMSO as 100%, read-out: NF-κB SEAP Compound alone % Activation

| SMILES | activity at 5 µM [4, 13] | activity at 5 µM [4, 14] | NF-κB FRET Compound + LPS % Activation [6] | MTT Compound alone % Viability [9] | NF-κB activity (SAR discussion, in words) [4] | further results |
| --- | --- | --- | --- | --- | --- | --- |
| Cc1ccc(C)c(-c2csc(NC(=O)c3ccc(S(=O)(=O)N4CCCCC4)cc3)n2)c1 [Compound 1, N-(4-(2,5-dimethylphenyl)thiazol-2-yl)-4-(piperidin-1-ylsulfonyl)benzamide] | 200% | 200% | 200.00% | 102.81% | – | phosphorylation of NFkB, combination of LPS and compound ([1]; LPS + compound 42): synergistic; NF-kB phosphorylation and nuclear localization induced by LPS (ICC and WB) ([1]; THP-1 cells, with LPS, listed as #42): prolonged; also recorded: Prolongation of NF-kB; phosphorylation of NF-kB by compound alone ([1]; compound 42 alone (FIGS. 9A-9C)): induced and sustained; cytokine production (mIL-12, mIL-6, mTNFalpha) induced by Dectin1 ([2]; listed as 42): not enhanced; also recorded: not by Dectin1; cytokine production (mIL-12, mIL-6, mTNFalpha) induced by Dectin1 ([2]; listed as #42): not by Dectin1; cytokine production induced by TLR ligands ([2]; with a TLR ligand (FIGS. 3-4)): enhanced; Cytotoxicity [3]: Enhancement of cell viability; co-stimulatory molecule expression induced by LPS ([5]; BDMCs, LPS (FIGS. 5A-5G)): enhances; co-stimulatory molecule expression induced by MPLA ([5]; BDMCs, MPLA (FIGS. 6A-6F)): enhances; Co-stimulatory markers: CD40 and CD86 induce by LPS or MPLA ([5]; listed as 42): enhanced; Co-stimulatory markers: CD40 and CD86 induce by LPS or MPLA ([5]; listed as #42): enhanced; also recorded: Enhancement of CD40 and CD86; enhancement of NF-κB activity by LPS at 12 h (confirmatory kinetic screening) ([6]; in presence of LPS, 12 h incubation): most potent; Gene expression: CD40, IL-12. CXCL5 expression ([7]; BMDCs): Enhancement of CD40, IL-12.; CD40, CXCL10 and IL-12 gene expression kinetics ([7]; by 10 hours after exposure, BDMCs, LPS and compound 42 (FIG. 7)): upregulated; MAPK activation: phosphorylation of JNK, P38 and Erk1/2 ([8]; listed as 42): induced; MAPK activation: phosphorylation of JNK, P38 and Erk1/2 ([8]; listed as #42): phosphorylation of JNK, P38 and Erk1/2; RNA seq [10]: Induction of CSF-1 and LIF; Co-stimulatory markers: CD40 and CD86 induce by LPS [11]: Enhancement of CD40 and CD86; reactogenicity [12]: not reactogenic |
| CCCCCc1sc(NC(=O)c2ccc(S(=O)(=O)N3CCCCC3)cc2)nc1-c1cc(C)ccc1C [Compound 18t, N-(4-(2,5-dimethylphenyl)-5-pentylthiazol-2-yl)-4-(piperidin-1-ylsulfonyl)benzamide] | 132% | 119% | 213.25% | 110.37% | loss in activity | – |
| CCCN1CCN(S(=O)(=O)c2ccc(C(=O)Nc3nc(-c4cc(C)ccc4C)cs3)cc2)CC1 [Compound 58k, N-(4-(2,5-dimethylphenyl)thiazol-2-yl)-4-((4-propylpiperazin-1-yl)sulfonyl)benzamide] | 110% | 101% | 100.84% | 50.85% | inactive | – |
| Cc1ccc2c(c1)-c1nc(NC(=O)c3ccc(S(=O)(=O)N4CCCCC4)cc3)sc1C2 [Compound 12r, N-(5-methyl-8H-indeno[1,2-d]thiazol-2-yl)-4-(piperidin-1-ylsulfonyl)benzamide] | 95.6% | 102% | 129.01% | 82.46% | weakly active | – |
| Cc1ccc(C)c(-c2csc(NC(=O)c3ccc(S(=O)(=O)N4CCNCC4)cc3)n2)c1 [Compound 58i, N-(4-(2,5-dimethylphenyl)thiazol-2-yl)-4-(piperazin-1-ylsulfonyl)benzamide] | 104% | 101% | 101.27% | 75.86% | inactive | – |
